From patent publication US7718393B2, “Method for determining the efficacy of an anthracycline anticancer agent” (Sysmex Corporation, priority 2006, dated 2010)

Key:
Assay type in all cases: cell-based, human
MCF-7 = assay: Cell growth test with or without doxorubicin, MCF-7; conditions: MCF-7, 1 μM doxorubicin, FIG. 3
Description: (§1) Human breast cancer cells MCF-7, T47-D, SK-B-3, SK-Br-3, MDA-MB-231 and MDA-MB-468 were purchased from American Type Culture Collection (ATCC). 38 cancer cell samples (Nos. 1 to 38) were excised from 38 breast cancer patients with invasive breast cancer classified in stages I to IIIb according to the breast cancer stage classification. The 38 breast cancer patients are those who after removal of cancer tissue, received chemotherapy consisting essentially of administration of anthracycline anticancer agents. Each human breast cancer cell or cancer tissue was proliferated in Eagle's modified minimum essential medium (GIBCO) (hereinafter referred to merely as medium) containing 10% FCS (Commonwealth Laboratories), 1% (v/v) nonessential amino acid (GIBCO), 2 mM L-glutamine (Sigma Chemical), 100 μg/ml streptomycin (GIBCO), 100 U/ml penicillin (GIBCO) and 0.28 μg/ml fungizone (Squib Pharmaceuticals) in a humidified atmosphere of 5% CO2/95% air at 37° C. 3.0×10^3 human breast cancer cells or cancer tissue were inoculated onto a medium in a 96-well plate and cultured for 1 day in a humidified atmosphere of 5% CO2/95% air at 37° C. Thereafter, the medium was exchanged with a medium with or without 1 μM doxorubicin. Cell proliferation after 0, 24, 48 and 72 hours was measured by using a cell proliferation assay kit (Nippon Chemi-Con Corporation) or Cell Titer-Glo Luminescent Cell Viability assay (Promega) in accordance with its manufacturer's instructions.

SK-Br-3 = assay: Cell growth test with or without doxorubicin, SK-Br-3; conditions: SK-Br-3, 1 μM doxorubicin, FIGS. 5 and 10
Description: as §1, with “Thereafter, the medium was exchanged with a medium with or without 1 μM doxorubicin.” left out

MDA-MB-231 = assay: Cell growth test with or without doxorubicin, MDA-MB-231; conditions: MDA-MB-231, 1 μM doxorubicin, FIGS. 6 and 11
Description: as §1

MDA-MB-468 = assay: Cell growth test with or without doxorubicin, MDA-MB-468; conditions: MDA-MB-468, 1 μM doxorubicin, FIGS. 7 and 9
Description: as §1, with “Thereafter, the medium was exchanged with a medium with or without 1 μM doxorubicin.” left out

MDA-MB-453 = assay: Cell growth test with or without doxorubicin, MDA-MB-453; conditions: MDA-MB-453, 1 μM doxorubicin, FIG. 8
T47-D = assay: Cell growth test with or without doxorubicin, T47-D; conditions: 1 μM doxorubicin, FIG. 4
Description: as §1, with “Thereafter, the medium was exchanged with a medium with or without 1 μM doxorubicin.” left out

## COc1cccc2c1C(=O)c1c(O)c3c(c(O)c1C2=O)C[C@@](O)(C(=O)CO)C[C@@H]3O[C@H]1C[C@H](N)[C@H](O)[C@H](C)O1 [doxorubicin]
MCF-7; 0 to 72 hours
  Cell proliferation as compared with the control: suppressed
  Living cells from 0 hour after administration: hardly changed or are increased
MCF-7
  Induction of apotosis: very low
SK-Br-3; 0 to 72 hours
  Living cells from 0 hour after administration: gradually decreased with time
SK-Br-3; 72 hours
  Induction of apotosis: so high that the living cells hardly remain after 72 hours
MDA-MB-231; 0 to 72 hours
  Cell proliferation as compared with the control: suppressed
  Living cells from 0 hour after administration: hardly changed or are increased
MDA-MB-231
  Induction of apotosis: very low
MDA-MB-468; 0 to 72 hours
  Living cells from 0 hour after administration: gradually decreased with time
MDA-MB-468
  Induction of apotosis: induced, but the effect thereon can be seen to be lower
MDA-MB-453; 0 to 72 hours
  Living cells from 0 hour after administration: gradually decreased with time
MDA-MB-453; 72 hours
  Induction of apotosis: so high that the living cells hardly remain after 72 hours
T47-D; 0 to 72 hours
  Living cells from 0 hour after administration: gradually decreased with time
T47-D
  Induction of apotosis: induced, but the effect thereon can be seen to be lower
